Laboratory results taken from ChEMBL document CHEMBL5380872, “Development of a Potent Nurr1 Agonist Tool for In Vivo Applications” (J Med Chem, 2023).

Legend:
[1] = target: T1, Nuclear receptor subfamily 4immunitygroup A member 1 (Homo sapiens, UniProt P22736); test: cell-based
in vivo = conditions: Sprague-Dawley, rat, po, 5 mg/kg
[2] = rat, in vivo, po, 5 mg/kg, 8 h
[3] = target: Dihydroorotate dehydrogenase (quinone), mitochondrial (Rattus norvegicus, UniProt Q63707)
[4] = target: T2, Peroxisome proliferator-activated receptor gamma (Homo sapiens, UniProt P37231)
T2 sequence (P37231 whole entry): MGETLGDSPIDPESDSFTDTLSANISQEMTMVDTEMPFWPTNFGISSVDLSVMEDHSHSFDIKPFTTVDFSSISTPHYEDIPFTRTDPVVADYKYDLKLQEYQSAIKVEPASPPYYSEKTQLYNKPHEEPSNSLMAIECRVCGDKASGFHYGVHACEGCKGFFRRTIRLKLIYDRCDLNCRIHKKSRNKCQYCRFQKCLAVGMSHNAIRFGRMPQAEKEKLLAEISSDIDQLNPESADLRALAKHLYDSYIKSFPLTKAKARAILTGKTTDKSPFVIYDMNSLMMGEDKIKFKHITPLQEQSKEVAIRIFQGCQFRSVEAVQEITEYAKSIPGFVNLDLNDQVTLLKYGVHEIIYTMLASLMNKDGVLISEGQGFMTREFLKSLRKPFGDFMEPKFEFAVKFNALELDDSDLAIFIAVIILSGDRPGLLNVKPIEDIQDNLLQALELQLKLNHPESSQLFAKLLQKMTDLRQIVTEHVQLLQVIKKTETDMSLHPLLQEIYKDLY

[5] = target: T1, Nuclear receptor subfamily 4immunitygroup A member 1
[6] = target: T3, Retinoic acid receptor alpha (Homo sapiens, UniProt P10276)
T3 sequence (P10276 whole entry): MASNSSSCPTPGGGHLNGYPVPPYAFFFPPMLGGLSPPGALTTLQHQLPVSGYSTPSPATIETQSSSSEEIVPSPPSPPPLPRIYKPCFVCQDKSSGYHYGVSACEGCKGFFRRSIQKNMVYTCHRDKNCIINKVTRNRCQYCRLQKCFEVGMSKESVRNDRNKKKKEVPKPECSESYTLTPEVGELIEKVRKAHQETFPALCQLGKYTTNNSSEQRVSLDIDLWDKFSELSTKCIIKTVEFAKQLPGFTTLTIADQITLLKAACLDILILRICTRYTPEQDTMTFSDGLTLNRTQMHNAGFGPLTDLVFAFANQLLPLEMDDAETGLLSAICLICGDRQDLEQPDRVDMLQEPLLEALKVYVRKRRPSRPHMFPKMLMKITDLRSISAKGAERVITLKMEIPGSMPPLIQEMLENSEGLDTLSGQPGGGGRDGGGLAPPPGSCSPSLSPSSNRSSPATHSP

[7] = target: T4, Thyroid hormone receptor alpha (Homo sapiens, UniProt P10827)
T4 sequence (P10827 whole entry): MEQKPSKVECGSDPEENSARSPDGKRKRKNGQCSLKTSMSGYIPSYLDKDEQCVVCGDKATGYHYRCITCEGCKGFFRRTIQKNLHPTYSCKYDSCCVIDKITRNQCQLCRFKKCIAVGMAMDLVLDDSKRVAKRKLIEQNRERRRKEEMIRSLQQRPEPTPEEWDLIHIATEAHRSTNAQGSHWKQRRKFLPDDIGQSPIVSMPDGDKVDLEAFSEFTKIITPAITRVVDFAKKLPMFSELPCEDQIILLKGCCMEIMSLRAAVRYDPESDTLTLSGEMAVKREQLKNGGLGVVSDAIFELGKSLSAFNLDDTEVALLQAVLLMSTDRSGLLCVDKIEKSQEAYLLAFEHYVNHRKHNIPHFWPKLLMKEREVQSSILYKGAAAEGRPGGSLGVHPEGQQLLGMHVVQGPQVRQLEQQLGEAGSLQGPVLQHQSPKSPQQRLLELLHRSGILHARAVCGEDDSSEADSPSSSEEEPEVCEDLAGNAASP

[8] = target: T5, Retinoic acid receptor RXR-alpha (Homo sapiens, UniProt P19793)
T5 sequence (P19793 whole entry): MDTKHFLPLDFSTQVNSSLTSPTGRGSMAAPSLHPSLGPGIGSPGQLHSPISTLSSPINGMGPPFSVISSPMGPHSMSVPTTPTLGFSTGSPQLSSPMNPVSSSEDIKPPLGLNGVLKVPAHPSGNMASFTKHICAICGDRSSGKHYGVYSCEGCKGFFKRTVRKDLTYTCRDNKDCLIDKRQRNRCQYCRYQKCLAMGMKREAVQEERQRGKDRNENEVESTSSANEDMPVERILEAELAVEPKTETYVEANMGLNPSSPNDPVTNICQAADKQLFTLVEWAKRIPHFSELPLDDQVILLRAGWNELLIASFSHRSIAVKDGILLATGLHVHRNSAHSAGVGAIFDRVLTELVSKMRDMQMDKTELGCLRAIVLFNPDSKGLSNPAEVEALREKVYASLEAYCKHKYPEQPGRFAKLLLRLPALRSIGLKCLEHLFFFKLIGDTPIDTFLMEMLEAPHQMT

[9] = target: Nuclear receptor subfamily 4 group A member 3 (Homo sapiens, UniProt Q92570)
[10] = target: T6, Peroxisome proliferator-activated receptor alpha (Homo sapiens, UniProt Q07869)
T6 sequence (Q07869 whole entry): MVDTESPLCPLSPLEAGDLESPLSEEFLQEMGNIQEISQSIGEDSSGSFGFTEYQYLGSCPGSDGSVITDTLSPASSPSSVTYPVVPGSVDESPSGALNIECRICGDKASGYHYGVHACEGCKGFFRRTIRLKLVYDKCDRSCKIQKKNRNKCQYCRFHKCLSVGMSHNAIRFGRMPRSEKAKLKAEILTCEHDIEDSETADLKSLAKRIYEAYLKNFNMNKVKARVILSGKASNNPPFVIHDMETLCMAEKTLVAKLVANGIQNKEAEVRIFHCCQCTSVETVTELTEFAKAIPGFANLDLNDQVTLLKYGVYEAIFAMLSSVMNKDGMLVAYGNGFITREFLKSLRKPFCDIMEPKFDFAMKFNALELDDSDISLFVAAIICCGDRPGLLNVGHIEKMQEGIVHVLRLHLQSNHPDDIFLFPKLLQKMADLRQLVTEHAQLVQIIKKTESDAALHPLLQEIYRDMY

Bile acid receptor = target: T7, Bile acid receptor (Homo sapiens, UniProt Q96RI1)
T7 sequence (Q96RI1 whole entry): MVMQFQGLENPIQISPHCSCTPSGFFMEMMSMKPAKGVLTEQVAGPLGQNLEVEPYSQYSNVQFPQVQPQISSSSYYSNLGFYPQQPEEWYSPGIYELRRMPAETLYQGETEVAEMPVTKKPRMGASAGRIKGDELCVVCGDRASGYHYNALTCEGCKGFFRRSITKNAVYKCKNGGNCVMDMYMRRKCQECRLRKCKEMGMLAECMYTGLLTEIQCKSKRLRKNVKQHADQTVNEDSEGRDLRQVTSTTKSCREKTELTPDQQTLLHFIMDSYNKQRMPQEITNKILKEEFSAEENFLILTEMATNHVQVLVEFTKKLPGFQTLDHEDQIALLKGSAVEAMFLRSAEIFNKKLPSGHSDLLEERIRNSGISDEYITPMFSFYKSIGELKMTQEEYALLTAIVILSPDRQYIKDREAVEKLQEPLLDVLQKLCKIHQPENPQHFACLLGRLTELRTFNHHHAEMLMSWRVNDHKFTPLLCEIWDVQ

Vitamin D3 receptor = target: T8, Vitamin D3 receptor (Homo sapiens, UniProt P11473)
T8 sequence (P11473 whole entry): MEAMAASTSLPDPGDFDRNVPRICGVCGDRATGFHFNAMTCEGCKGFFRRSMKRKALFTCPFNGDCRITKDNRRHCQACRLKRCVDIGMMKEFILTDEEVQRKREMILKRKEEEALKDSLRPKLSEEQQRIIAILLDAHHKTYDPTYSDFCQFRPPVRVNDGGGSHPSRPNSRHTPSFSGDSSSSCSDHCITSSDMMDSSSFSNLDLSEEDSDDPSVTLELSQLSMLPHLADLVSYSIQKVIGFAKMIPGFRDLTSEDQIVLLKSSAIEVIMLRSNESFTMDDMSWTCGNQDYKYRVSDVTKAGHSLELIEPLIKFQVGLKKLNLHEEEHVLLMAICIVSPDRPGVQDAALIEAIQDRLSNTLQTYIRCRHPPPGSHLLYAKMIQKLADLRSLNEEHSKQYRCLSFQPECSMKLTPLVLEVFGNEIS

T1 sequence (P22736 whole entry): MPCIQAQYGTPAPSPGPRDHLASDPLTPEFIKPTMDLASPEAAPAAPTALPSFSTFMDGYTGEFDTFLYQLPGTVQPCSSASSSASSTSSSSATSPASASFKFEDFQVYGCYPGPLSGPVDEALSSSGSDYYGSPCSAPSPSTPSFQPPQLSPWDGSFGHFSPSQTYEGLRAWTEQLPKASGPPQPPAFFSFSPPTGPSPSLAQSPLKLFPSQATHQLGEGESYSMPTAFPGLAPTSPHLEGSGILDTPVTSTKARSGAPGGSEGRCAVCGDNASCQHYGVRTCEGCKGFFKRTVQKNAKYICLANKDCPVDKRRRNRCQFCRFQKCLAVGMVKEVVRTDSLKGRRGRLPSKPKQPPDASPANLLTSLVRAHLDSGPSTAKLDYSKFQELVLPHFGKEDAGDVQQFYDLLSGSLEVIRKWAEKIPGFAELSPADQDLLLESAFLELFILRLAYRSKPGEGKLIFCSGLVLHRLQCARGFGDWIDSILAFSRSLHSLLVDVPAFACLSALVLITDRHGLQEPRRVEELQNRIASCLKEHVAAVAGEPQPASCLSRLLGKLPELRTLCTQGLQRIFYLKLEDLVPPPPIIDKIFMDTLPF
Sequence of Dihydroorotate dehydrogenase (quinone), mitochondrial (Q63707 whole entry): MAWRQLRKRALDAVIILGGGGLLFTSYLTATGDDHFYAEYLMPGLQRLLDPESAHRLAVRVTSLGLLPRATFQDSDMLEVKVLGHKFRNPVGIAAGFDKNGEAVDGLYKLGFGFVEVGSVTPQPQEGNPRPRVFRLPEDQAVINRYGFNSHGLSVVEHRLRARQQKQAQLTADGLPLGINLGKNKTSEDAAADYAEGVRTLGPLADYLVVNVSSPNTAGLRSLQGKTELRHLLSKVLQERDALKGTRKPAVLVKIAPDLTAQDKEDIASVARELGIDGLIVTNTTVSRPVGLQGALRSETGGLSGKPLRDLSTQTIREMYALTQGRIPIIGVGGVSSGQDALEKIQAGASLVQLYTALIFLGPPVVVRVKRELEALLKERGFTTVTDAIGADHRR
Sequence of Nuclear receptor subfamily 4 group A member 3 (Q92570 whole entry): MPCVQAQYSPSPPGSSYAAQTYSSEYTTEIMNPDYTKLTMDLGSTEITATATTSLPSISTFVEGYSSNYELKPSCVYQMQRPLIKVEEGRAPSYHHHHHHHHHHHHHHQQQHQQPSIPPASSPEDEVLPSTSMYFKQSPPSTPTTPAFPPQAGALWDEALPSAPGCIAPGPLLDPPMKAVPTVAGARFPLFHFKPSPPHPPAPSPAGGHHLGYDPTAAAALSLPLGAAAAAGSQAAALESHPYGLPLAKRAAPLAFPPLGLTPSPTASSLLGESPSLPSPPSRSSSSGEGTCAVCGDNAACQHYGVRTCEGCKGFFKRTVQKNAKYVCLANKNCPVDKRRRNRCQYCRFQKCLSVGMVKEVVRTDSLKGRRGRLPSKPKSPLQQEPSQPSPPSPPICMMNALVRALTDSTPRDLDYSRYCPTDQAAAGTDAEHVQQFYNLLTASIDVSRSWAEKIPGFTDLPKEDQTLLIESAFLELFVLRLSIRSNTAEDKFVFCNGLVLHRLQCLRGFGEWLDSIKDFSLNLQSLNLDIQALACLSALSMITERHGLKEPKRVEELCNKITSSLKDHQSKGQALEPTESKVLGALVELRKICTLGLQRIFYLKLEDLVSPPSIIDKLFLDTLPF

EC50 [1] [µM] | AUC at 8 h (in vivo) [µM·h] | Cmax [2] [µM] | IC50 [3] [µM] | Structure (SMILES) | EC50 [4] [µM] | EC50 [5] [µM] | EC50 [6] [µM] | EC50 [7] [µM] | EC50 [8] [µM] | EC50 [9] [µM] | EC50 [10] [µM] | EC50 (Bile acid receptor) [µM] | EC50 (Vitamin D3 receptor) [µM]
1.4 | 290 | 56 | 6 | C#CCOc1cccc(-c2ccc(NC(=O)C3=C(C(=O)O)CCC3)c(F)c2)c1 | – | – | – | – | – | – | – | – | –
– | – | – | – | COc1cccc(-c2ccc(NC(=O)C3=C(C(=O)O)CCC3)c(F)c2)c1 [VIDOFLUDIMUS] | > 10 | 3.1 | > 10 | > 10 | > 10 | 2.9 | > 10 | > 10 | > 10
